From patent US20240115670A1, “FIBROBLAST ACTIVATION PROTEIN MODULATION TO ALTER IMMUNE CELL MIGRATION AND TUMOR INFILTRATION” (Georgetown University, priority 2021, published 2024)

Legend:
NK92-GFP cells = test: NK92-GFP infiltration into cell clusters embedded in 3D matrix; format: cell-based, human; details: 10 uM Cpd60
Method: (§1) 3D clusters were generated, embedded and stained as previously described. In brief, clusters were generated by plating 1,000 cells per well into 96-well Nunclon Sphera low adhesion plates (Thermo Scientific, cat #174925) and incubated overnight at 37° C. The following day, 6 clusters were embedded into an ECM containing 2,000 NK cells and plated into one well of a Nunc Lab-Tek II 8-well chamber slide (ThermoScientific, cat #154534PK). The ECM mixture consisted of 20% growth factor reduced Matrigel (Corning, 10-12 mg/ml stock concentration, #354230) and 80% rat tail collagen type I at 3 mg/mL (gibco, A1048301). Cells were either imaged for the following 24 hours every 30 minutes using the Zeiss LSM800 scanning confocal microscope or allowed to incubate overnight at 37° C. After 24 hours, cells in matrix were fixed with 5.4% formalin for 1 hour, permeabilized with 0.5% Triton-X and blocked using goat serum. For invasion assays, NK-92-GFP cells were stained with anti-GFP (ThermoFisher, cat #A-11122). For the cell lysis assays clusters were stained using anti-cleaved caspase 3 (Cell Signaling, cat #9661). Hoechst 33342, phalloidin, and secondary antibodies labeled with Alexa Fluor 488 nm, 546 nm, 647 nm, or 680 nm (Invitrogen) were used.
3D clusters were generated, embedded and stained as previously described (34, 35). In brief, clusters were generated by plating 1,000 cells per well into 96-well Nunclon Sphera low adhesion plates (Thermo Scientific, cat #174925) and incubated overnight at 37° C. The following day, 6 clusters were embedded into an ECM containing 2,000 NK cells were plated into one well of a Nunc Lab-Tek II 8-well chamber slide (ThermoScientific, cat #154534PK). To ensure equal distribution of NK cells in Matrigel, the NK cells were first suspended in the Matrigel stock, which was then aliquoted for individual cluster embedding. The ECM mixture consisted of 20% growth factor reduced Matrigel (Corning, 10-12 mg/ml stock concentration, #354230) and 80% rat tail collagen type I at 3 mg/mL (Gibco, A1048301). […]

PANC-1 cell clusters = test: NK cell lysis of PANC-1 clusters in 3D matrix (cleaved caspase 3); format: cell-based, human; details: 10 uM Cpd60
Method: as §1
3D clusters were generated, embedded and stained as previously described (34, 35). […]

primary human NK cells = test: 2D live imaging of primary NK cell migration on EL08.1D2 stromal cells; format: cell-based; details: 10 uM Cpd60 vs vehicle; three donors
Method: 2D migration studies were done as previously reported. In brief, EL08.1D2 stromal cells were grown to a confluent monolayer on Lab-Tek chamber slides pre-coated with 0.1% gelatin (Stemcell Technologies). […] Cells were imaged in 96-well ImageLock plates (Essen Bioscience) on the IncuCyte ZOOM Live-Cell Analysis System (Essen Bioscience) at 37° C. every 2 min in the phase-contrast mode (10× objective). Tracking of live cells was done using the manual tracking feature in Volocity or FIJI. Tracks were plotted using the Chemotaxis plugin of FUI. Cells that were in the field of imaging for fewer than two frames were discarded, as were cells which were non-adherent or floating. EL08.1D2 cells were used as de facto fiducial markers to ensure that neither they or the microscope stage was drifting and causing apparent NK cell movement.
Length and displacement measurements were derived directly from tracked cells and graphed using GraphPad software. Velocity data was obtained by dividing the total track length by the time of imaging.
2D migration studies were done as previously reported (31, 32). In brief, EL08.1D2 stromal cells were grown to a confluent monolayer on flat-bottomed 96 well ImageLock plates (Essen Bioscience) pre-coated with 0.1% gelatin (Stemcell Technologies). […] Freshly isolated human NK cells were imaged in 96-well on the IncuCyte ZOOM Live-Cell Analysis System (Essen Bioscience) at 37° C. every 2 min in the phase-contrast mode (10× objective). Tracking of live cells was done using the manual tracking feature in Fiji (33). Tracks were plotted using the Chemotaxis plugin of FIJI. Cells that were in the field of imaging for fewer than two frames were discarded, as were cells which were non-adherent or floating. EL08.1D2 cells were used as de facto fiducial markers to ensure that neither they or the microscope stage was drifting and causing apparent NK cell movement. Length and displacement measurements were derived directly from tracked cells and graphed using GraphPad software. Velocity data was obtained by dividing the total track length by the time of imaging.

FAP = details: mouse, in vivo; cited from earlier work
PANC-1 cells = test: NK cell lysis of PANC-1 cells in 2D cocultures; format: cell-based, human

For `N#C[C@@H]1CC(F)(F)CN1C(=O)CNC(=O)c1ccnc2ccccc12` [Cpd60], the “effect on NK cell viability” value (NK cell line) was “no effect”, the “NK92-GFP cell infiltration into PANC-1 clusters embedded in matrix” value (NK92-GFP cells; 24-hour coculture) was “significantly reduced” and the “NK92-GFP cell infiltration into PSC clusters embedded in matrix” value (NK92-GFP cells; 24-hour coculture) was “significantly reduced”. The cluster size (NK92-GFP cells; 80% collagen/20% Matrigel) was “no effect”, the “PANC-1 cell apoptosis (cleaved caspase 3) in 3D cultures with NK92” value (PANC-1 cell clusters; NK92 cells) was “significantly reduced” and the “donor NK cell lysis of PANC-1 cells in 3D” value (PANC-1 cell clusters; NK cells from two donors, normalized to cluster area) was “reduced”. For the same compound, the “Euclidian distance traveled by NK cells” value (primary human NK cells) was “no significant impact”, the NK cell velocity (primary human NK cells) was “significantly reduced” and the “accumulated distance traveled by NK cells” value (primary human NK cells) was “significantly reduced”. For the same compound, the “FAP inhibition in murine models” value (FAP) was “selectively and completely inhibits FAP” and the “PANC-1 cell apoptosis in 2D cell cocultures with NK92” value (PANC-1 cells) was “no effect”.
